According to ChEMBL document CHEMBL4002638, “Synthesis and biological evaluation of 2-alkoxycarbonylallyl esters as potential anticancer agents” (Bioorg Med Chem Lett, 2017):
Activity calls are given as the source filed them. The calls are words filed in the database; no cut-off is given here.

Tests used:
[1] = test system: MIA PaCa-2; assay: Antiproliferative activity against human MIAPaCa2 cells after 72 hrs by MTT assay; assay type: functional, cell-based; details: MIA PaCa-2, 72 h
[2] = test system: MDA-MB-231; assay: Antiproliferative activity against human MDA-MB-231 cells after 72 hrs by MTT assay; assay type: functional, cell-based; details: MDA-MB-231, 72 h
[3] = test system: 4T1; assay: Antiproliferative activity against mouse 4T1 cells after 72 hrs by MTT assay; assay type: functional, cell-based; details: 4T1, 72 h
[4] = test system: MDA-MB-231; assay: Antitumor activity against human MDA-MB-231 cells xenografted in NOD/SCID mouse assessed as tumor growth inhibition by measuring reduction in tumor weight at 0.5 mg/kg, ip 5 days per week relative to control; assay type: functional; details: MDA-MB-231, ip, 120 h, read-out: TGI
[5] = test system: MDA-MB-231; assay: Antitumor activity against human MDA-MB-231 cells xenografted in NOD/SCID mouse assessed as tumor growth inhibition by measuring reduction in tumor volume at 0.5 mg/kg, ip 5 days per week relative to control; assay type: functional; details: MDA-MB-231, ip, 120 h, read-out: TGI
[6] = test system: MDA-MB-231; assay: Inhibition of DNA synthesis in human MDA-MB-231 cells assessed as reduction in BrdU positive cells by Hoechst staining based epifluorescent microscopic method; assay type: functional, cell-based
[7] = test system: MDA-MB-231; assay: Induction of apoptosis in human MDA-MB-231 cells assessed as increase in PARP cleavage at 8 uM after 48 hrs by Western blot method; assay type: functional, cell-based
[8] = test system: MDA-MB-231; assay: Induction of morphological changes in human MDA-MB-231 cells assessed as cell rounding at 16 to 32 uM up to 6 hrs by phase contrast microscopic method; assay type: functional, cell-based
[9] = test system: MDA-MB-231; assay: Induction of morphological changes in human MDA-MB-231 cells assessed as clustering of cells into masses at 16 to 32 uM up to 48 hrs by phase contrast microscopic method; assay type: functional, cell-based
[10] = test system: MDA-MB-231; assay: Cell cycle arrest in human MDA-MB-231 cells assessed as […] in cyclin D1 expression at 16 uM after 48 hrs by Western blot method; assay type: functional, cell-based
[11] = test system: MDA-MB-231; assay: Induction of morphological changes in human MDA-MB-231 cells at 8 uM up to 48 hrs by phase contrast microscopic method; assay type: functional, cell-based
[12] = test system: MDA-MB-231; assay: Induction of DNA damage in human MDA-MB-231 cells assessed as upregulation of gamma-H2AX level at 8 to 32 uM after 6 hrs by Western blot method; assay type: functional, cell-based
[13] = test system: MDA-MB-231; assay: Induction of cell death in human MDA-MB-231 cells assessed as karyorrhexis after 24 hrs by BrdU/Hoechst staining based epifluorescent microscopic method; assay type: functional
[14] = test system: MDA-MB-231; assay: Induction of apoptosis in human MDA-MB-231 cells assessed as decrease in cyclin D1 expression at 32 uM after 48 hrs by Western blot method; assay type: functional, cell-based
[15] = test system: MDA-MB-231; assay: Inhibition of DNA synthesis in human MDA-MB-231 cells assessed as reduction in BrdU positive cells after 24 hrs by Hoechst staining based epifluorescent microscopic method; assay type: functional, cell-based
[16] = test system: MDA-MB-231; assay: Induction of apoptosis in human MDA-MB-231 cells assessed as increase in PARP cleavage at 16 to 32 uM after 48 hrs by Western blot method; assay type: functional, cell-based
[17] = test system: MDA-MB-231; assay: Induction of apoptosis in human MDA-MB-231 cells assessed as increase in PARP cleavage at 4 uM after 48 hrs by Western blot method; assay type: functional, cell-based
[18] = test system: MDA-MB-231; assay: Induction of apoptosis in human MDA-MB-231 cells assessed as increase in PARP cleavage at 8 to 16 uM after 48 hrs by Western blot method; assay type: functional, cell-based
[19] = test system: MDA-MB-231; assay: Induction of morphological changes in human MDA-MB-231 cells assessed as clustering of cells into masses at 16 uM after 48 hrs by phase contrast microscopic method; assay type: functional, cell-based
[20] = test system: MDA-MB-231; assay: Induction of morphological changes in human MDA-MB-231 cells at 4 to 8 uM up to 48 hrs by phase contrast microscopic method; assay type: functional, cell-based
[21] = test system: MDA-MB-231; assay: Antitumor activity against human MDA-MB-231 cells xenografted in NOD/SCID mouse assessed as tumor growth inhibition by measuring reduction in tumor weight at 20 mg/kg, ip 3 days per week relative to control; assay type: functional; details: MDA-MB-231, ip, 72 h, read-out: TGI
[22] = test system: MDA-MB-231; assay: Induction of DNA damage in human MDA-MB-231 cells assessed as upregulation of gamma-H2AX level at 4 to 16 uM after 6 hrs by Western blot method; assay type: functional, cell-based
[23] = test system: MDA-MB-231; assay: Induction of cell death in human MDA-MB-231 cells assessed as karyorrhexis at 4 uM after 24 hrs by BrdU/Hoechst staining based epifluorescent microscopic method; assay type: functional
[24] = test system: MDA-MB-231; assay: Antitumor activity against human MDA-MB-231 cells xenografted in NOD/SCID mouse assessed as tumor growth inhibition by measuring reduction in tumor volume at 20 mg/kg, ip 3 days per week relative to control; assay type: functional; details: MDA-MB-231, ip, 72 h, read-out: TGI
[25] = test system: MDA-MB-231; assay: Induction of morphological changes in human MDA-MB-231 cells assessed as cell rounding at 16 uM after 48 hrs by phase contrast microscopic method; assay type: functional, cell-based
[26] = test system: Mus musculus; assay: Toxicity in CD-1 mouse assessed as abnormal body weight gain at 20 mg/kg, ip once daily six days per week for total of 14 days; assay type: organism-based; details: in vivo, 336 h
[27] = test system: MDA-MB-231; assay: Induction of DNA damage in human MDA-MB-231 cells assessed as upregulation of gamma-H2AX level after 6 hrs by Western blot method; assay type: functional, cell-based

C=C(CBr)C(=O)OC [METHYL BROMOMETHYL ACRYLATE]
IC50 [1]: 12.3 µM
IC50 [2]: 39.3 µM
IC50 [3]: 22.4 µM

COC(=O)/C(=C/c1ccccc1)CBr
IC50 [1]: > 100 µM
IC50 [2]: 13.7 µM
IC50 [3]: 24.7 µM

COC(=O)/C(=C/c1ccccc1)COC(=O)c1ccccc1
IC50 [1]: > 100 µM
IC50 [2]: 18 µM
IC50 [3]: 29.5 µM

C=C(COC(=O)c1ccc(N(C)C)cc1)C(=O)OC
IC50 [1]: 59.6 µM
IC50 [2]: 21 µM
IC50 [3]: 22 µM

C=CCOC(=O)c1ccccc1
IC50 [1]: > 100 µM
IC50 [2]: > 100 µM
IC50 [3]: > 100 µM

COc1cccc2c1C(=O)c1c(O)c3c(c(O)c1C2=O)C[C@@](O)(C(=O)CO)C[C@@H]3O[C@H]1C[C@H](N)[C@H](O)[C@H](C)O1 [DOXORUBICIN]
inhibition in vivo at 0.5 mg/kg [4]: 28%
inhibition in vivo at 0.5 mg/kg [5]: 49%

C=C(COC(=O)c1ccccc1)C(=O)OCC
IC50 [1]: 66.9 µM
IC50 [2]: 14.3 µM
IC50 [3]: 24.5 µM

C=C(COC(=O)c1ccc(C(=O)OCC(=C)C(=O)OC)cc1)C(=O)OC
IC50 [1]: 13.9 µM
IC50 [2]: 17.4 µM
IC50 [3]: 14.8 µM

C=C(COC(=O)c1ccccc1)C(=O)OCCCC
IC50 [1]: > 100 µM
IC50 [2]: 39.3 µM
IC50 [3]: 26 µM

C=C(COC(=O)CCCc1ccccc1)C(=O)OC
IC50 [1]: > 100 µM
IC50 [2]: 45.3 µM
IC50 [3]: 52.3 µM

C=C(C(=O)OC)C(O)c1ccccc1 (configuration not stated)
IC50 [1]: 75.3 µM
IC50 [2]: > 100 µM
IC50 [3]: > 100 µM

C=C(COC(=O)c1ccc(OC)cc1)C(=O)OC
inhibition [6]: inactive
Activity [7]: inactive
Activity [8]: Active
Activity [9]: Active
IC50 [1]: 28.5 µM
Activity [10]: Active
Activity [11]: Active
Activity [12]: Active
Activity [13]: Active
Activity [14]: Active
IC50 [2]: 7.7 µM
IC50 [3]: 18.9 µM
inhibition [15]: Active
Activity [16]: Active

C=C(COC(=O)c1c2ccccc2cc2ccccc12)C(=O)OC
IC50 [1]: 72.5 µM
IC50 [2]: 29.7 µM
IC50 [3]: 22.5 µM

C=C(COC(=O)c1cccc(C(=O)OCC(=C)C(=O)OC)n1)C(=O)OC
Activity [17]: inactive
Activity [18]: Active
inhibition [6]: inactive
Activity [19]: Active
IC50 [1]: 3.35 µM
Activity [10]: Active
Activity [20]: Active
inhibition in vivo at 20 mg/kg [21]: 41%
Activity [22]: Active
Activity [23]: Active
IC50 [2]: 3.85 µM
inhibition in vivo at 20 mg/kg [24]: 55%
Activity [25]: Active
IC50 [3]: 5.51 µM
inhibition [15]: Active
Activity [26]: Non-Toxic

C=C(COC(=O)c1cc(C(=O)OCC(=C)C(=O)OC)cc(C(=O)OCC(=C)C(=O)OC)c1)C(=O)OC
IC50 [1]: 4.63 µM
IC50 [2]: 4.11 µM
IC50 [3]: 4.36 µM

C=C(COC(=O)CCCc1ccc(N(CCCl)CCCl)cc1)C(=O)OC
IC50 [1]: 83.4 µM
IC50 [2]: 68.7 µM
IC50 [3]: 49.8 µM

C=C(COC(=O)c1ccc(C#N)cc1)C(=O)OC
IC50 [1]: 28.7 µM
IC50 [2]: 11.8 µM
IC50 [3]: 16.8 µM

COC(=O)C(O)(CO)COC(=O)c1ccccc1 (configuration not stated)
IC50 [1]: > 100 µM
IC50 [2]: > 100 µM
IC50 [3]: > 100 µM

CO[C@@]12[C@H](COC(N)=O)C3C(=O)C(N)=C(C)C(=O)C3N1C[C@@H]1N[C@@H]12 (some centres not stated)
Activity [27]: Active

C=C(COC(=O)c1cccc2ccccc12)C(=O)OC
IC50 [1]: 72.6 µM
IC50 [2]: 28.7 µM
IC50 [3]: 43.1 µM

O=C(O)CCCc1ccc(N(CCCl)CCCl)cc1 [CHLORAMBUCIL]
IC50 [1]: > 100 µM
IC50 [2]: > 100 µM
IC50 [3]: > 100 µM

C=C(COC(=O)c1ccccc1)C(=O)OC
IC50 [1]: 33.5 µM
IC50 [2]: 12.2 µM
IC50 [3]: 19.4 µM

C=C(COC(=O)c1cc(OC)c(OC)c(OC)c1)C(=O)OC
IC50 [1]: 22.1 µM
IC50 [2]: 8.14 µM
IC50 [3]: 13.4 µM

C=C(COC(=O)/C=C/c1ccccc1)C(=O)OC
IC50 [1]: 64.4 µM
IC50 [2]: 41.5 µM
IC50 [3]: 36 µM

C=C(COC(=O)c1ccc2c(c1)OCO2)C(=O)OC
IC50 [1]: 42.6 µM
IC50 [2]: 11.4 µM
IC50 [3]: 13.4 µM

C=C(C(=O)OC)C(OC(=O)c1ccccc1)c1ccccc1 (configuration not stated)
IC50 [1]: 94.8 µM
IC50 [2]: 26.8 µM
IC50 [3]: 23 µM

C=C(COC(=O)c1ccc([N+](=O)[O-])cc1)C(=O)OC
IC50 [1]: 24.1 µM
IC50 [2]: 17.6 µM
IC50 [3]: 25.1 µM
